Measured values published in patent US20030224420A1, “Method for isolating and measuring proliferation of long-term label retaining cells and stem cells” (priority 2002, published 2003).
Entries after “also recorded” stand apart in the source; their conditions may differ.

Experiments:
[1] = tested on: CEC; assay: CEC proliferation rates of BrdU treated vs control rats (preliminary study); assay type: in vivo; settings: data not shown
Text: There have been reports on the inhibitory effects of BrdU on cell proliferation and differentiation in vitro and in vivo at various concentrations and in various cell types. Since BrdU toxicity is strain and cell type specific, we cannot completely assess possible toxic effects from BrdU on the proliferation of LRCs.

[2] = tested on: colon epithelial cells (CECs); assay: Flow cytometric (FACS) analysis of BrdU labeled colon epithelial cell nuclei; assay type: in vivo, Fisher 344 rats; settings: for BrdU+ cells in proliferative fraction of the crypt: FACS
Experimental: For BrdU labeling, rats received BrdU in drinking water at 1 mg/ml. Glucose (1 g/100 ml) was added to the water to mask the taste of BrdU. BrdU was added to the water, then the bottle was shaken. Next, glucose was added and the bottle was vigorously shaken to dissolve BrdU completely. It took approximately 1-2 min for BrdU to dissolve completely. It was important to prepare BrdU drinking water freshly everyday during the feeding period.
Colon was excised fresh at necropsy. Feces were removed with 0.015M NaCl solution with 0.001M dithiothreitol (DTT) and the colon was placed in cold, 1.6% Joklik's modified medium (JMMEM, Gibco Invitrogen, Grand Island, N.Y.) for 120 minutes. CECs from different proliferative fractions of the crypt were separated sequentially using the nonenzymatic, mechanical dissociation method described elsewhere. CEC from different crypt fractions (basal proliferative fraction and top mature fraction) were collected by incubating the colon sac filled with PBS buffers containing chelating agents. The tissue was shaken in a 37° C. water bath for 20 minutes, then 15 minutes and 30 minutes for collecting CECs from top, middle and the basal fractions, respectively. The middle fraction (transitional fraction) was discarded. The collected CECs were then separated from intraepithelial lymphocytes and other contaminants by applying to a discontinuous Percoll (Amersham Biosciences, Uppsala, Sweden) gradient centrifugation, with 45% Percoll overlaid on 75% Percoll. CEC from the proliferative fraction (the base of the crypts) were collected and used for FACS and GC/MS analysis since LRCs are known to be located at this region. The CECs from the mature (top) fractions from the rats that were given ^2H2O for 2-3 weeks were used as fully turned over CECs to represent the maximal ^2H labeling in DNA. A part of the distal and proximal colon was used for immunohistochemistry.
The staining protocol was as described elsewhere, and was modified for CECs. The CECs were separated from colon (as described above) and filtered through a Falcon tube 2235. The cells were then fixed with ice cold 95% ethanol while vortexing, centrifugated at 800 g for 3 minutes and washed in cold PBS (without Ca^++ and Mg^++) once. […] Two million cells were washed of ethanol in 150 ul of PBS, incubated in 1% NP 40 (Sigma) solution in the refrigerator for 30 minutes, centrifugated at 10,000 g, and the pellet was collected and washed in PBS. Two million CEC nuclei were added to each well in 96 well plates (round bottom), then 150 ul of 1% paraformaldehyde with 0.01% Tween 20 in PBS was added for additional fixation and permeabilization. The cells were kept at room temperature for 30 minutes then at 4° C. for 15 minutes, prior to centrifugation at 800 g for 3 minutes and washing in cold PBS once. Next, 150 μl of DNase I (50 kunits/ml) was added at room temperature for 15 minutes to allow denaturation of nuclear DNA. […] For negative controls, an equal concentration of mouse IgG1 FITC isotype control antibodies (Becton Dickinson, Cat 349041) were used to correct for background fluorescence. […]
At the end of each BrdU labeling period (0 week delabed), we analyzed the percent of BrdU positive cells from the proliferative fraction of the crypt (where LRCs have previously been located). This maximal BrdU labeled sample was analyzed to confirm the efficacy of BrdU administration. […]

[3] = Body weight and toxicity during BrdU administration (p.o. drinking water vs i.p.); assay type: in vivo
[4] = Body water ^2H2O enrichment by GC/MS during ^2H2O administration; assay type: in vivo, Fisher 344 rats; settings: for Body Water ^2H2O Enrichment: 8% ^2H2O drinking water
Experimental: Rats were primed with 99.9% ^2H2O i.p. at the start of the ^2H2O labeling period. The volume injected was 4% of the estimated body water volume. Then they were maintained on 8% ^2H2O enriched drinking water ad libitum for up to 8 weeks (19).
Body water enrichments were measured by a gas chromatographic/mass spectrometer (GC/MS) technique that we have described previously.
Body water ^2H2O enrichments were measured from plasma obtained from rats sacrificed at each time point. Achievement of plateau ^2H enrichments in body water during long-term ^2H2O administration is desirable because it signifies a stable DNA synthesis precursor enrichment for labeling of DNA. Body water enrichment from rats that were on ^2H2O for 2-8 weeks reached expected values and remained at those plateau levels (3.9-4.3%) throughout the study (FIG. 3).

Row | Structure (SMILES) | CEC proliferation rates vs control rats [1] | BrdU+ cells in proliferative fraction, mean±SD over labeling periods ([2]; 0 week delabeled, mean of 2, 4 and 8 weeks BrdU p.o.) | BrdU positive cells after 4 and 8 weeks of BrdU administration ([2]; 4 and 8 weeks BrdU p.o.) | BrdU+ cells in proliferative fraction of the crypt ([2]; after 4 weeks BrdU p.o., 0 week delabeled) | BrdU+ cells in proliferative fraction of the crypt ([2]; after 8 weeks BrdU p.o., 0 week delabeled) | BrdU incorporation / fluorescence of CEC, i.p. vs p.o. ([2]; repeated i.p. injection once a day for 8 days compared with p.o. drinking water) | Toxicity or weight loss ([3]; BrdU 1 mg/ml in drinking water, long-term) | Toxicity (body weight) ([3]; BrdU i.p., repeated injections once a day for 8 days) | Body Water ^2H2O Enrichment ([4]; Week 1 of ^2H2O administration) | Body Water ^2H2O Enrichment ([4]; Week 3 of ^2H2O administration) | Body Water ^2H2O Enrichment ([4]; Week 4 of ^2H2O administration) | Delabeling time for ^2H2O to be almost completely washed out of the body water pool ([4]; after stopping ^2H2O intake, found previously in applicant's lab) | Body water enrichment, plateau levels ([4]; rats on ^2H2O for 2-8 weeks, measured from plasma) | Body water enrichment maintained throughout the study ([4]; throughout the study)
1 | O=c1[nH]c(=O)n([C@H]2C[C@H](O)[C@@H](CO)O2)cc1Br [BrdU, bromodeoxyuridine] | same CEC proliferation rates as the control rats | 77±12% | 65-77% | 65% | 77% | more BrdU incorporation and thus higher fluorescence | did not cause any detectable toxicity or weight loss | caused toxicities; also recorded: caused weight loss; also recorded: toxicities were observed | – | – | – | – | – | –
2 | [2H]O[2H] [^2H2O, deuterated water] | – | – | – | – | – | – | – | – | 4.29 | 3.93 | 4.30 | less than 1 week | 3.9-4.3% | 4.2±0.2 % of total body water
